The values that follow come from publication PMC2877818, “Thermodynamics of RTA3 peptide binding to membranes and consequences for antimicrobial activity^” (Biochimica et Biophysica Acta, 2010).

Like-named read-outs stand apart in the source and are kept apart here.

One test concerns P. aeruginosa ATCC 27853. The format is cell-based, Pseudomonas aeruginosa. To be noted: broth microdilution, Mueller Hinton (plus cations) broth, 24 hours at 37 °C, no visible growth; triplicate, averaged. On the procedure:
(§1) Minimum inhibitory concentrations (MIC) of the peptides were determined by broth microdilution according to the Clinical and Laboratory Standards Institute. About 90 µL of 0.5–1 × 10^6 CFU/mL of Pseudomonas aeruginosa ATCC 27853 and E. coli ATCC 25922 in Mueller Hinton media (plus cations) broth (BD, Baltimore, MD, USA) was incubated in 96-well microtitre plates with serial twofold dilutions of the peptides. Minimum inhibitory concentrations (MICs) were defined as the lowest peptide concentration with no visible growth of bacteria after 24 hours at 37 °C. All measurements were made in triplicate and averaged.
On the technique in general: In broth dilution the organism is exposed to a series of concentrations in liquid medium.

A further test deals with E. coli UB 122. The format is cell-based. To be noted: broth microdilution, Mueller Hinton (plus cations) broth, 24 hours at 37 °C; triplicate, averaged.
The subject of test [1] is E. coli 345-2 outer membrane. The experiment in a line: Outer membrane permeabilization to nitrocefin. To be noted: read-out: OM permeabilization: peptide concentration resulting in half-maximal translocated substrate turnover, triplicate.
Procedure: Outer and inner membrane permeabilities were determined as described previously [16]. E. coli cells overexpressing β-lactamase were grown to logarithmic phase, washed, and resuspended (10^8 CFU/mL) in 10 mM HEPES buffer pH 7.4. About 90 µL of 1 × 10^7 CFU of the test organism (E. coli 345-2) containing 20 µg/mL nitrocefin was then added to 96-well microtitre plates containing serial twofold dilutions of antimicrobial peptides. Nitrocefin cleavage was monitored by measuring A490. All data were measured in triplicate.
The test system of the next test is E. coli 345-2. The format is cell-based. To be noted: broth microdilution, Mueller Hinton (plus cations) broth, 24 hours at 37 °C; triplicate, averaged.
In test [2] the test system is E. coli 122 inner membrane. The experiment in a line: Inner membrane permeabilization to ONPG. To be noted: read-out: IM permeabilization: peptide concentration resulting in half-maximal translocated substrate turnover, PBS pH 7.4, 30 °C, triplicate.
Procedure: Inner membrane permeability was determined by measuring the β-galactosidase activity of lactose permease-deficient E. coli at 30 °C using ONPG as substrate. E. coli cells overexpressing the β- galactosidase enzyme (E. coli 122) were grown to logarithmic phase, washed, and resuspended (10^8 CFU/mL) in phosphate buffered saline pH 7.4. About 90 µL of 1 × 10^7 CFU of the test organism containing 0.4 mg/mL ONPG was then added to 96-well microtitre plates containing serial twofold dilutions of antimicrobial peptides. The production of o-nitrophenol was monitored spectrophotometrically at 420 nm. An equivalent volume of water replaced the peptide solution in the control assay. All data were measured in triplicate.
The subject of a further test is E. coli ATCC 25922. The format is cell-based. To be noted: broth microdilution, Mueller Hinton (plus cations) broth, 24 hours at 37 °C, no visible growth; triplicate, averaged. As to the method: as §1

With Polymyxin E, the “MIC P. aeruginosa ATCC 27853” value in the test on P. aeruginosa ATCC 27853 was found to be 2 µM. Besides, in the test on E. coli UB 122, the “MIC E. coli UB 122” value is reported as 0.5 µM. For the same substance, the EC50 in test [1] (+Mg2+ (0.4 mM MgCl2), nitrocefin, 10 mM HEPES pH 7.4) is 1800 nM; in test [1] (−Mg2+, nitrocefin 20 µg/mL, 10 mM HEPES pH 7.4, A490), 2000 nM; in test [2] (+Mg2+ (0.4 mM MgCl2), ONPG), above 100000 nM; in test [2] (−Mg2+, ONPG 0.4 mg/mL, 420 nm), above 40000 nM. In addition, the “MIC E. coli 345-2” value in the test with E. coli 345-2 is 0.5 µM. Besides, the “MIC E. coli ATCC 25922” value in the test on E. coli ATCC 25922 amounted to 1 µM.
